One data set has as its target T1, serotonin 2 receptor (Rattus norvegicus, UniProt P14842).
T1 construct: To the receptor fraction of the cerebral cortex were added a test compound and 0.3 nM of [^3H] ketanserin; from tissue; host or cells: rat cerebral cortex membrane fraction
Kind of data set: Binding test on [3H] ketanserin, cerebral cortex receptor fraction. More on the design: species or system SD rats. The note with it: 0.3 nM [3H] ketanserin, 37° C. 15 min, read-out: 5HT2.

The next data set has as its target T2, serotonin 1A receptor (Rattus norvegicus, UniProt P19327).
T2 construct: To the receptor fraction of the hippocampus were added a test compound and 0.5 nM of [^3H]; 8-hydroxy-dipropylaminotetralin; from tissue; host or cells: rat hippocampus membrane fraction
T2 sequence (P19327 1-422): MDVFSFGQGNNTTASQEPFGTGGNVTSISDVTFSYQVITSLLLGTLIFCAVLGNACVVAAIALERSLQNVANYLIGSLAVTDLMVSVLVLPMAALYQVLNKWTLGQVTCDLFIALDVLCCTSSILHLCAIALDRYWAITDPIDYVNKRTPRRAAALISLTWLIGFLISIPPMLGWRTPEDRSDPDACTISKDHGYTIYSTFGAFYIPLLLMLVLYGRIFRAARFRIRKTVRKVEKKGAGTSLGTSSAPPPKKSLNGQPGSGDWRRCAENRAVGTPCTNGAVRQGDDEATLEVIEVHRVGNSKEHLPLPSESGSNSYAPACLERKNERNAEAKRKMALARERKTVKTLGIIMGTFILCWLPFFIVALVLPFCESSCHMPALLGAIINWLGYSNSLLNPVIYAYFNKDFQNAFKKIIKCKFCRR
As to the kind of experiment: Binding test on [3H] 8-hydroxy-dipropylaminotetralin, hippocampus receptor fraction. More on the design: species or system SD rats. The note with it: rat hippocampus receptor fraction, 0.5 nM [3H] 8-OH-DPAT, room temperature 30 min; read-out: 5HT1.

One may read the melting point as the temperature of the solid-liquid transition.

Structures are written as SMILES. Where a name gives a salt, the structure may show the parent alone.

T1 sequence (P14842 whole entry): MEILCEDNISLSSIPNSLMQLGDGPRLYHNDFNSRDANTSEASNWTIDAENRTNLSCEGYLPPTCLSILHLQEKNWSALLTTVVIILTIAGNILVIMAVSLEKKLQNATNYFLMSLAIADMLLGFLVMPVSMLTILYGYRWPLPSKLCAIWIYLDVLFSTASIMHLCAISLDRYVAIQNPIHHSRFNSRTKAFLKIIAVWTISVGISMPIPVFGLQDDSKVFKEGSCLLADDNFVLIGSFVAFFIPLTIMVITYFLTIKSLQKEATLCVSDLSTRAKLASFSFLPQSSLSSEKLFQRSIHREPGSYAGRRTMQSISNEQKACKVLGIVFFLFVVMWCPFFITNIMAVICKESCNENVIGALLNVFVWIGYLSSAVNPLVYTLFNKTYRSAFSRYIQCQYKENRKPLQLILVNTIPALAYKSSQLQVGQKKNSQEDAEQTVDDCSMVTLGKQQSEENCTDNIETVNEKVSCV
Procedure for serotonin 1A receptor: (1) Binding test on serotonin 1A, serotonin 2 and α1 adrenalin receptors
The following reagents were employed in this test. • 1) Serotonin binoxalate (5-HT binoxalate, mfd. by Sigma Chemical Co.). • 2) Methysergide maleate (mfd. by RBI).
As radioisotope-labeled compounds, use was made of the following reagents (mfd. by NEN). • 3) [^3H] 8-Hydroxy-dipropylaminotetralin (8-OH-DPAT). • 4) [^3H]
Methysergide maleate was dissolved in distilled water before using.
Use was made of SD rats aged 6 to 8 weeks.
The rats were sacrificed by dcapitation to extirpate the cerebra. The hippocampus and cortex were separated therefrom and employed in the binding tests respectively on the serotonin 1A receptor and the serotonin 2 receptor.
The hippocampus was mixed with 50 times (on the wet weight basis) as much as 0.32 M sucrose solution while the cortex was mixed with 10 times as much the same solution. Each mixture was homogenized by using a Teflon glass homogenizer and centrifuged as 1,000× g for 10 min. The supernatant thus obtained was further centrifuged at 20,000× g for 20 min. The obtained precipitate was re-suspended in 50 times (based on the initial wet weight; in the case of the hippocampus) or 10 times (in the case of the cortex) as much a 50 Tris hydrochloride (pH 7.4) and incubated at room temperature for 30 min. After centrifuging at 20,000× g for 20 min, the obtained precipitate was further suspended and centrifuged twice each in the same manner. The precipitate thus obtained was suspended in 100 times (based on the initial wet weight; in the case of the hippocampus) or 20 times (in the case of the cortex) as much a 50 mM Tris hydrochloride solution (pH 7.4) to thereby give a receptor fraction. This receptor fraction was stored at −80° C. until using.
To the receptor fraction of the hippocampus were added a test compound and 0.5 nM of [^3H] 8-hydroxy-dipropylaminotetralin and the resultant mixture was incubated at room temperature for 30 min. Next, it was filtered through a glass filter with the use of a cell harvester. After washing the glass filter with 50 mM Tris hydrochloride (pH 7.4), the radioactivity of the receptor was measured with a liquid scintillation counter. The binding detected in the presence of 10 μM of serotonin binoxalate was referred to as the nonspecific binding.
IC50 was calculated by the probit method, while Ki was determined in accordance with the following formula: Ki=IC50(1+c/Kd) wherein c represents the concentration of the radioisotope-labeled compound, and Kd represents the dissociation constant of the radioisotope-labeled compound with respect to the receptor determined by Scatchard's analysis.

For `CCN1CCN(c2nc(-c3ccc(S(=O)(=O)N4CCCC4)cc3)cc3ccccc23)CC1` (as salt: hydrochloride) [Example 356, 1-(4-ethylpiperazin-1-yl)-3-[4-(pyrrolidin-1-yl)sulfonylphenyl]isoquinoline dihydrochloride], the melting point was 238.5 to 240 °C (dec.).

`CCN1CCN(c2nc(-c3ccc(CCCO)c(Cl)c3)cc3ccsc23)CC1` (as salt: oxalate) [Example 257, 5-[4-(3-hydroxypropyl)-3-chlorophenyl]-7-(4-ethylpiperazin-1-yl)thieno[2,3-c]pyridine Oxalate] gave a melting point of 114 to 116 °C.

On to `CCN1CCN(c2nc(-c3ccc(N4CCOCC4)nc3)cc3ccsc23)CC1` (as salt: hydrochloride) [Example 263, 5-[2-(4-morpholinyl)pyridin-5-yl]-7-(4-ethylpiperazin-1-yl)thieno[2,3-c]pyridine Hydrochloride], for which the melting point lay within 182 to 185 °C.

The molecule `CCN1CCN(c2nc(C(=O)c3ccc(OC)cc3)cc3ccccc23)CC1` (as salt: oxalate) [Example 112, 3-(4-Methoxyphenylcarbonyl)-1-(4-ethylpiperazin-1-yl)isoquinoline Oxalate] showed a melting point of 176 to 179 °C.

Turning to `CC(C)(O)COc1ccc(-c2cc3sccc3c(N3CCN(CCO)CC3)n2)cc1` (as salt: hydrochloride) [Example 296, 6-[4-(2-methyl-2-hydroxypropoxy)phenyl]-4-[4-(2-hydroxyethyl)piperazin-1-yl]thieno]3,2-c]pyridine hydrochloride], the melting point lay in the range of 139 to 142 °C.

For the molecule `COc1ccc(-c2cc3ccccc3c(N3CCN(C)CC3)n2)cc1` (as salt: hydrochloride) [Example 2, 1-(1-methylpiperazin-4-yl)-3-(4-methoxyphenyl)isoquinoline], the melting point was in the range of 134 to 136 °C.

In the case of `CCN1CCN(c2nc(-c3ccc(CNS(=O)(=O)CC)c(Cl)c3)cc3ccccc23)CC1` (as salt: hydrochloride) [Example 91, 3-(3-Chloro-4-ethylsulfonylaminomethylphenyl)-1-(4-ethylpiperazin-1-yl)isoquinoline Hydrochloride], the melting point was 278 to 280 °C (dec.).

As for `CCN1CCN(c2nc(-c3ccc(C4CCCO4)cc3)cc3ccccc23)CC1` (stereo not shown) (as salt: hydrochloride) [Example 396, 1-(4-Ethylpiperazin-1-yl)-3-[4-(Tetrahydrofuran-2-yl)Phenyl]Isoquinoline Dihydrochloride], the melting point lay in the range of 129 to 130 °C.

For the molecule `CCN1CCN(c2nc(-c3ccc(NS(=O)(=O)CC)cc3)cc3ccccc23)CC1` (as salt: hydrochloride) [Example 71, 3-(4-Ethylsulfonylaminophenyl)-1-(4-Ethylpiperazin-1-Yl)Isoquinoline Hydrochloride], the melting point is 198 to 201 °C.

In the case of `CCN1CCN(c2nc(-c3ccc(S(=O)(=O)NCCOC)cc3)cc3ccccc23)CC1` (as salt: hydrochloride) [Example 354, 1-(4-ethylpiperazin-1-yl)-3-{4-[N-(2-methoxyethyl)sulfamoyl]phenyl}isoquinoline dihydrochloride], the melting point was 222 to 224 °C (dec.).

Regarding `CCN1CCN(c2nc(C3CCc4ccc(OC)cc43)cc3ccccc23)CC1` (stereo not shown) (as salt: oxalate) [Example 114, 3-(6-Methoxyindan-1-yl)-1-(4-ethylpiperazin-1-yl)isoquinoline Oxalate], the melting point was 122 to 124 °C.

In the case of `CCN1CCN(c2nc(-c3ccc(OCCO)c(OC)c3)cc3ccccc23)CC1` (as salt: hydrochloride) [Example 340, 1-(4-ethylpiperazin-1-yl)-3-[4-(2-hydroxyethoxy)-3-methoxyphenyl]isoquinoline dihydrochloride], the melting point was in the range of 128 to 129 °C.

Molecule `CCN1CCN(c2nc(C3CCCc4cc(OC)ccc43)cc3ccccc23)CC1` (stereo not shown) (as salt: oxalate) displayed a melting point of 170 to 173 °C.

The molecule `CN1CCN(c2nc(-c3ccc(OCCO)cc3)cc3ccsc23)CC1` (as salt: hydrochloride) [Example 253, 5-[4-(2-hydroxyethoxy)phenyl]-7-(4-methylpiperazin-1-yl)thieno[2,3-c]pyridine Hydrochloride] registered a melting point of 141 to 143 °C.

On to `CCN1CCN(c2nc(-c3cccc(OCCO)c3)cc3ccsc23)CC1` [Example 258, 7-(1-ethylpiperazin-4-yl)-5-[3-(2-hydroxyethoxy)phenyl]thieno[2,3-c]pyridine Dihydrochloride], for which the values for the Ki on serotonin 2 receptor and at serotonin 1A receptor were 35.1 nM and 24.7 nM, respectively.

Turning to `CCN1CCN(c2nc(-c3ccc(C(C)(C)O)cc3)cc3ccccc23)CC1` [Example 345, 1-(4-ethylpiperazin-1-yl)-[4-(1-hydroxy-1-methylethyl)phenyl]isoquinoline], the figures for the Ki on serotonin 2 receptor and on serotonin 1A receptor were 1.4 nM and 11.3 nM, respectively.

As for `CCC(O)c1ncc(-c2cc3ccccc3c(N3CCN(CC)CC3)n2)s1` (stereo not shown) [Example 170, 1-(1-ethylpiperazin-4-yl)-3-[(1-hydroxypropyl)thiazol-5-yl]isoquinoline dihydrochloride], the Ki at serotonin 2 receptor worked out at 25.4 nM; on serotonin 1A receptor, 3 nM.

Turning to `CCN1CCN(c2nc(/C=C/Cc3ccccc3OC)cc3ccccc23)CC1` [Example 211], the Ki is 40.2 nM at serotonin 2 receptor and 5.17 nM on serotonin 1A receptor.

As to `CCCS(=O)(=O)Nc1ccc(-c2cc3ccccc3c(N3CCN(CC)CC3)n2)cc1` [Example 72, 3-(4-Propylsulfonylaminophenyl)-1-(4-Ethylpiperazin-1-Yl)Isoquinoline Hydrochloride], the Ki on serotonin 2 receptor was determined as 3.6 nM; at serotonin 1A receptor it was 15 nM.

As for `CCCNC(=O)c1ccc(-c2cc3ccsc3c(N3CCN(CC)CC3)n2)cc1` [Example 449, 7-(4-ethylpiperazin-1-yl)-5-[4-(N-propylcarbamoyl)phenyl]thieno[2,3-c]pyridine dihydrochloride], the Ki was 43.8 nM on serotonin 2 receptor and 24 nM at serotonin 1A receptor.

Take `CCN1CCN(c2nc(-c3ccc(S(=O)(=O)N4CCS(=O)(=O)CC4)cc3)cc3ccccc23)CC1` [Example 77, 3-[(1,1-Dioxythiomorpholinyl)Sulfonylphenyl]-1-(4-Ethylpiperazin-1-Yl)Isoquinoline Hydrochloride]: the Ki was determined as 90.5 nM at serotonin 2 receptor and 13.6 nM at serotonin 1A receptor.

As for `CCCNS(=O)(=O)Cc1ccc(-c2cc3ccccc3c(N3CCN(CC)CC3)n2)cc1` [Example 81, 3-(4-Propylaminosulfonylmethylphenyl)-1-(4-Ethylpiperazin-1-Yl)Isoquinoline Hydrochloride], the values for the Ki at serotonin 2 receptor and on serotonin 1A receptor were 15.1 nM and 1.1 nM, respectively.

For `CCN1CCN(c2nc(-c3cc(OCCO)cc(OCCO)c3)cc3ccccc23)CC1` [Example 38, 3-[3,5-di(2-hydroxyethoxy)phenyl]-1-(4-ethylpiperazin-1-yl)isoquinoline hydrochloride], the Ki at serotonin 2 receptor turned out to be 75.7 nM; at serotonin 1A receptor, 20.8 nM.

In the case of `CCN1CCN(c2nc(-c3ccc(C(F)CCO)cc3)cc3cccnc23)CC1` (stereo not shown) [Example 249, 8-(1-ethylpiperazin-4-yl)-6-[4-(3-hydroxy-1-fluoropropyl)phenyl]-1,7-naphthyridine Dihydrochloride], the Ki was 28.1 nM on serotonin 2 receptor and 38 nM at serotonin 1A receptor.

For the molecule `CCN1CCN(c2nc(-c3ccc(S(C)(=O)=O)cc3)cc3ccsc23)CC1` [Example 445, 7-(4-ethylpiperazin-1-yl)-5-(4-methanesulfonylphenyl)thieno)[2,3-c]pyridine dihydrochloride], the results for the Ki on serotonin 2 receptor and at serotonin 1A receptor were 90.4 nM and 5.46 nM, respectively.

`CCN1CCN(c2nc(-c3ccc(CCC(C)(C)O)cc3)cc3sccc23)CC1` [Example 291, 4-[4-ethylpiperazin-1-yl)-6-[4-(3-hydroxy-3-methylbutyl)phenyl]thieno[3,2-c]pyridine dihydrochloride]: the Ki turned out to be 1.44 nM at serotonin 2 receptor and 43.3 nM at serotonin 1A receptor.

Regarding `CCN1CCN(c2nc(C(C)=Cc3ccccc3)cc3ccccc23)CC1` [Example 192, 1-(1-Ethylpiperazin-4-Yl)-3-(Cis-1-Methyl-2-Phenylethenyl) Isoquinoline Oxalate], the results for the Ki at serotonin 2 receptor and at serotonin 1A receptor were 7.85 nM and 66.7 nM, respectively.

For the molecule `CCN1CCN(c2nc(CCCc3ccccc3OCCO)cc3ccccc23)CC1` [Example 110, 1-(1-Ethylpiperazin-4-yl)-3-[3-[2-(2-hydroxyethoxy)phenyl]propyl]isoquinoline], the Ki on serotonin 2 receptor is 109 nM; at serotonin 1A receptor it was 58.6 nM.

Consider `CN1CCN(c2nc(-c3ccc(OCCO)cc3)cc3sccc23)CC1` [Example 279, 4-(4-methylpiperazin-1-yl)-6-[4-(2-hydroxyethoxy)phenyl]thieno[3,2-c]pyridine hydrochloride], for which the Ki at serotonin 2 receptor stood at 1.44 nM; on serotonin 1A receptor, 76.4 nM.

Turning to `CCN1CCN(c2nc(C#Cc3ccc(OC)cc3OC)cc3ccccc23)CC1` [Example 185, 1-(1-Ethylpiperazin-4-Yl)-3-(2,4-Dimethoxyphenylethynyl)Isoquinoline Dihydrochloride], the values for the Ki on serotonin 2 receptor and on serotonin 1A receptor were 2 nM and 21.2 nM, respectively.

Source of the values: patent publication US6875761B2 (Eisai Co., Ltd., priority 1997, dated 2005).
